Reference: patent publication US9521847B2, “Synergistic weed control from applications of pyridine carboxylic acid herbicides and synthetic auxin herbicides and/or auxin transport inhibitors” (Dow AgroSciences LLC, priority 2014, dated 2016)
Like-named read-outs stand apart in the source and are kept apart here.

Columns and labels:
[1] = test system: pigweed (AMARE, Amaranthus retroflexus); test: Greenhouse postemergence trial, % visual injury; format: in vivo; settings: for % visual injury, Obs: AMARE
[2] = test system: winter rape (BRSNW, Brassica napus); test: Greenhouse postemergence trial, % visual injury; format: in vivo; settings: for % visual injury Obs: 20-22 d
[3] = test system: common lambsquarters (CHEAL, Chenopodium album L.); test: Greenhouse postemergence trial, % visual injury; format: in vivo
[4] = test system: kochia (KCHSC, Kochia scoparia); test: Greenhouse postemergence trial, % visual injury; format: in vivo; settings: for % visual injury Obs: 20-22 d
Protocol: Following the protocol in Example 1, compound 1 and compound 2 were combined with 2,4 D EHE (EC) and applied to kochia (KCHSC, Kochia scoparia) and the phytotoxicity of the herbicidal compositions was measured.
Following the protocol in Example 1, compound 1 (EC) and Compound 2 (SC) were combined with diflufenzopyr and applied to kochia (Kochia scoparia, KCHSC) and the phytotoxicity of the herbicidal composition was measured.

[5] = test system: kochia (KCHSC, Kochia scoparia); test: Patio postemergence trial, % visual injury; format: in vivo; settings: 20-22 d
Protocol: (§1) The plants were grown for 7-36 days (d) on a fenced, open-air patio. Nutrients and water were added on a regular basis.
(§2) Temperatures and photoperiods were dependent on the natural weather conditions during the trials. Weather conditions during trials were conducive for plant growth and development.

[6] = test system: pigweed (AMARE, Amaranthus retroflexus); test: Patio postemergence trial, % visual injury; format: in vivo; settings: 20-22 d
Protocol: as §1, §2

[7] = test system: winter wheat (TRZAW); test: Patio postemergence trial, crop phytotoxicity (% visual injury); format: in vivo, Triticum aestivum; settings: 20-22 d
Protocol: as §1, §2

[8] = test system: CIRAR = Cirsium arvense (Canadian thistle); test: Small plot field trial (Canada), % visual injury; format: in vivo; settings: 35 g ae/ha alone, 46-64 DAA
Protocol: (§3) Trials were established as randomized complete blocks with 3-4 replicates. Individual plots were 2-3 meters (m) wide and 8-10 m long. Applications were made with backpack or tractor-mounted sprayers delivering a spray volume output of 100 liters per hectare (L/ha) using pressurized carbon dioxide (CO2) as a propellant. Compound 7 was combined with 2,4 D EHE (660 g ae/L EC formulation) and applied to spring wheat (TRZAS), and the phytotoxicity of the herbicidal compositions was measured. In addition, the efficacy of the herbicidal composition on Canadian thistle ([…], Cirsium arvense), […] scoparia), mallow ([…] pusilla), wild buckwheat (POLCO, Polygonum convolvulus), and lady's thumb (POLPE, Polygonum persicaria) was evaluated.

[9] = test system: MALPU = Malva pusilla (mallow); test: Small plot field trial (Canada), % visual injury; format: in vivo; settings: 35 g ae/ha alone, 26-33 DAA
Protocol: as §3

[10] = test system: kochia (KCHSC, Kochia scoparia); test: Small plot field trial (Canada), % visual injury; format: in vivo; settings: 35 g ae/ha alone, 46-64 DAA
Protocol: as §3

[11] = test system: lady's thumb (POLPE, Polygonum persicaria); test: Small plot field trial (Canada), % visual injury; format: in vivo; settings: 35 g ae/ha alone, 14-16 DAA
Protocol: as §3

[12] = test system: wild buckwheat (POLCO, Polygonum convolvulus); test: Small plot field trial (Canada), % visual injury; format: in vivo; settings: 35 g ae/ha alone, 15 DAA
Protocol: as §3

[13] = test system: spring wheat (TRZAS); test: Small plot field trial (Canada), crop phytotoxicity (% visual injury); format: in vivo, Triticum aestivum; settings: 35 g ae/ha alone
Description: Small plot field trials were established in Canada to evaluate efficacy and crop safety of Compound 7 with 2,4-D EHE. Trials were established as randomized complete blocks with 3-4 replicates. Individual plots were 2-3 meters (m) wide and 8-10 m long. Applications were made with backpack or tractor-mounted sprayers delivering a spray volume output of 100 liters per hectare (L/ha) using pressurized carbon dioxide (CO2) as a propellant. Compound 7 was combined with 2,4 D EHE (660 g ae/L EC formulation) and applied to spring wheat (TRZAS), and the phytotoxicity of the herbicidal compositions was measured. In addition, the efficacy of the herbicidal composition on Canadian thistle ([…], Cirsium arvense), kochia (KCHSC, Kochia scoparia), mallow (MALPU, Marva pusilla), wild buckwheat (POLCO, Polygonum convolvulus), and lady's thumb (POLPE, Polygonum persicaria) was evaluated.

[14] = test system: winter wheat (TRZAW); settings: Triticum aestivum (winter wheat), in vivo
[15] = test system: Canadian thistle (CIRAR, Cirsium arvense); test: Greenhouse postemergence trial, % visual injury;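 note: plants sprayed at second to third true leaf stage, injury scored visually 20-22 d later against solvent-blank sprayed controls, 0 meaning no injury and 100 complete kill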
[16] = test system: velvetleaf (Abutilon theophrasti, ABUTH); test: Greenhouse postemergence trial, % visual injury; format: in vivo; settings: Abutilon theophrasti, post-emergence, ABUTH, read-out: % visual injury, Obs
[17] = test system: nutsedge (Cyperus esculentus, CYPES); test: Greenhouse postemergence trial, % visual injury; format: in vivo; settings: CYPES
[18] = test system: wild buckwheat (Polygonum convolvulus, POLCO); test: Greenhouse postemergence trial, % visual injury; format: in vivo; settings: for % visual injury, Obs: POLCO
[19] = test system: common chickweed (Stellaria media, STEME); test: Greenhouse postemergence trial, % visual injury; format: in vivo; settings: STEME
[20] = test system: large crabgrass (Digitaria sanguinalis, DIGSA); test: Greenhouse postemergence trial, % visual injury; format: in vivo; settings: Digitaria sanguinalis, post-emergence; DIGSA; MCPA EHE 140 g ae/ha; read-out: % visual injury, Obs
[21] = test system: spring rape (Brassica napus, BRSNN); test: Greenhouse postemergence trial, % visual injury; settings: Brassica napus, post-emergence, read-out: % visual injury, Obs
[22] = test system: poinsettia (Euphorbia heterophylla, EPHHL); test: Greenhouse postemergence trial, % visual injury; settings: Euphorbia heterophylla, post-emergence
[23] = test system: wild pansy (Viola tricolor, VIOTR); test: Greenhouse postemergence trial, % visual injury; settings: VIOTR
[24] = test system: ivyleaf morningglory (Ipomoea hederacea, IPOHE); test: Greenhouse postemergence trial, % visual injury; settings: Ipomoea, post-emergence
[25] = test system: spring barley (HORVS); test: Greenhouse postemergence trial, crop phytotoxicity (% visual injury)
[26] = test system: winter wheat (TRZAW); test: as above; settings: for % visual injury, Obs: TRZAW
[27] = test system: maize (ZEAMX); test: as above; settings: ZEAMX
[28] = test system: common rice (ORYSA); test: as above; settings: ORYSA
[29] = test system: grain sorghum (Sorghum vulgare, SORVU); test: Greenhouse postemergence trial, % visual injury; format: in vivo; settings: SORVU, 140 g ae/ha
[30] = test system: soybean (Glycine max, GIAMA); test: Greenhouse postemergence trial, % visual injury; format: in vivo; settings: GLXMA, 140 g ae/ha
[31] = Chenopodium album, post-emergence, read-out: % visual injury Obs
[32] = crop, 280 g ae/ha alone, 20-22 d

Structure (SMILES): Nc1c(F)c(-c2ccc3cc[nH]c3c2F)nc(C(=O)[O-])c1Cl.[K+] [compound 7]
- pest or weed control at 8.75 g/ha ([1]; Amaranthus retroflexus, post-emergence, read-out: % visual injury Obs): 70%
- % visual injury Obs ([2]; 8.75 g ae/ha alone): 58%
- pest or weed control at 5 g/ha [3, 31]: 80%
- pest or weed control at 8.75 g/ha [3, 31]: 60%
- pest or weed control at 10 g/ha [3, 31]: 100%
- % visual injury Obs ([4]; 8.75 g ae/ha alone): 55%
- % visual injury Obs ([5]; 8.75 g ae/ha alone): 5%
- % visual injury Obs ([5]; 17.5 g ae/ha alone): 0%
- % visual injury Obs ([6]; 8.75 g ae/ha alone): 30%
- % visual injury Obs ([6]; 17.5 g ae/ha alone): 40%
- % visual injury Obs ([7]; 8.75 g ae/ha alone): 5%
- % visual injury Obs ([7]; 17.5 g ae/ha alone): 0%
- % visual injury Obs [8]: 20%
- % visual injury Obs [9]: 15%
- % visual injury Obs [10]: 62%
- % visual injury Obs [11]: 20%
- % visual injury Obs [12]: 50%
- % visual injury Obs ([13]; 6-8 DAA): 3%
- % visual injury Obs ([13]; 14-16 DAA): 3%
- % visual injury Obs [14]: 0%
- pest or weed control at 5 g/ha ([15]; Cirsium arvense, post-emergence, read-out: % visual injury Obs, 5 g ae/ha alone, 20-22 d): 50%
- pest or weed control at 8.75 g/ha ([15]; Cirsium arvense, post-emergence, read-out: % visual injury Obs, 8.75 g ae/ha alone, 20-22 d): 25%
- pest or weed control at 10 g/ha ([15]; Cirsium arvense, post-emergence, read-out: % visual injury Obs, 10 g ae/ha alone, 20-22 d): 65%

Structure (SMILES): CCCCC(CC)COC(=O)COc1ccc(Cl)cc1C (stereo not shown) [MCPA EHE, 2-ethylhexyl (4-chloro-2-methylphenoxy)acetate]
- % visual injury, Obs ([1]; MCPA EHE 140 g ae/ha): 70%
- pest or weed control at 280 g/ha ([1]; Amaranthus retroflexus, post-emergence, 280 g ae/ha alone, 20-22 d, read-out: % visual injury Obs): 35%
- % visual injury Obs ([2]; 280 g ae/ha alone): 73%
- pest or weed control at 280 g/ha ([3]; Chenopodium album, post-emergence, 280 g ae/ha alone, 20-22 d, read-out: % visual injury Obs): 75%
- % visual injury Obs ([4]; 280 g ae/ha alone): 0%
- pest or weed control at 280 g/ha ([4]; Bassia scoparia, post-emergence, KCHSC, 280 g ae/ha, read-out: % visual injury, Obs): 0%
- pest or weed control at 280 g/ha ([16]; 280 g ae/ha): 65%
- pest or weed control at 140 g/ha ([16]; MCPA EHE 140 g ae/ha): 0%
- % visual injury, Obs ([17]; 280 g ae/ha): 50%
- % visual injury, Obs ([17]; MCPA EHE 140 g ae/ha): 0%
- % visual injury (Obs) ([18]; MCPA EHE 420 g ae/ha): 65%
- % visual injury, Obs ([18]; 280 g ae/ha): 70%
- % visual injury, Obs ([18]; 420 g ae/ha): 65%
- % visual injury, Obs ([19]; 280 g ae/ha): 10%
- pest or weed control at 140 g/ha [20]: 10%
- % visual injury Obs ([5]; 280 g ae/ha alone): 20%
- % visual injury Obs ([7]; 280 g ae/ha alone): 0%
- % visual injury, Obs ([15]; CIRAR, 280 g ae/ha): 75%
- plant injury at 140 g/ha [21]: 35%
- plant injury at 280 g/ha [21]: 95%
- pest or weed control at 140 g/ha ([22]; read-out: % visual injury, Obs, EPHHL, MCPA EHE 140 g ae/ha): 0%
- % visual injury, Obs ([23]; 280 g ae/ha): 75%
- % visual injury, Obs ([23]; MCPA EHE 140 g ae/ha): 60%
- pest or weed control at 140 g/ha ([24]; read-out: % visual injury, Obs, IPOHE, MCPA EHE 140 g ae/ha): 80%
- % visual injury, Obs ([25]; HORVS, 420 g ae/ha): 0%
- % visual injury (Obs) ([25]; MCPA EHE 420 g ae/ha): 0%
- % visual injury Obs [25, 32]: 0%
- % visual injury (Obs) ([26]; MCPA EHE 420 g ae/ha): 0%
- % visual injury, Obs ([26]; 280 g ae/ha): 0%
- % visual injury, Obs ([26]; 420 g ae/ha): 0%
- % visual injury, Obs ([26]; MCPA EHE 140 g ae/ha): 3%
- % visual injury Obs [26, 32]: 3%
- % visual injury, Obs ([27]; 280 g ae/ha): 0%
- % visual injury, Obs ([27]; MCPA EHE 140 g ae/ha): 0%
- % visual injury, Obs ([28]; 280 g ae/ha): 0%
- % visual injury, Obs ([28]; MCPA EHE 140 g ae/ha): 3%

Structure (SMILES): O=C(O)c1c(Cl)ccc2cc(Cl)cnc12 [quinclorac, reference compound]
- % visual injury, Obs ([1]; 140 g ae/ha): 10%
- % visual injury, Obs ([2]; BRSNW, 140 g ae/ha): 0%
- % visual injury, Obs ([3]; CHEAL, 140 g ae/ha): 5%
- pest or weed control at 140 g/ha ([4]; Bassia scoparia, post-emergence, KCHSC, 140 g ae/ha, read-out: % visual injury, Obs): 0%
- pest or weed control at 140 g/ha ([16]; 140 g ae/ha): 0%
- % visual injury, Obs [29]: 0%
- % visual injury, Obs ([19]; 140 g ae/ha): 10%
- % visual injury, Obs [30]: 30%
- pest or weed control at 140 g/ha ([22]; read-out: % visual injury, Obs, EPHHL, 140 g ae/ha): 20%
- % visual injury, Obs ([23]; 140 g ae/ha): 10%
- pest or weed control at 140 g/ha ([24]; read-out: % visual injury, Obs, IPOHE, 140 g ae/ha): 65%
- % visual injury, Obs ([26]; 140 g ae/ha): 0%
- % visual injury, Obs ([27]; 140 g ae/ha): 0%
- % visual injury, Obs ([28]; 140 g ae/ha): 0%
